Test [1] addresses T1, peripheral-type BZ receptors (Rattus norvegicus, UniProt P16257).
T1 construct: displacement of ^3 H-RO5-4864 in brain homogenates; from tissue; host or cells: brain homogenates
Kind of test: Competitive binding assay, displacement of 3H-Ro5-4864 in brain homogenates. From the text: Sprengel, R., et al., "Molecular cloning and expression of cDNA encoding a peripheral-type benzodiazepine receptor," J. Biol. Chem., 264:20415-20421 (1989).
Some of these compounds were further tested in in vivo studies.

A short description of test [2]: Physical trauma (head injury) model, grip score 18 hours post-injury. It is filed as in vivo, mice (male CF-1). The text has this:
Two tests which can be readily performed are observation of grip score and observation of grip time in injured test animals. Another test for agonist activity is for decrease in mortality caused by the CNS injury. Mice can be treated to simulate CNS injury by a variety of methods: they can be deprived of oxygen by administration of KCN (Nauquier, A., et al., Arch. Int. Pharmacodyn., 249:330 (1981)) or by temporary tying-off of the carotid artery (Braughler, J. M. and Lainer, M. J., "The effects of large doses of methylprednisolone on neurologic recovery and survival in the Mongolian gerbil following three hours of unilateral carotid occlusion," CNS Trauma, 3:153-162 (1986)). Alternatively, blows can be administered to the head or the spinal cord of the test animal.
The following protocol was used:
The compound to be tested was weighed and suspended in a polyethylated castor oil solution ("Cremophore") (21% Cremaphore, 3% ethanol in 0.9% saline). The concentration of the solution was then adjusted for administration at a dose of 0.01 cc/gm body weight. For example, for a dose of 10 mg/Kg, the solution was made 1.0 mg/cc, and a 23 g mouse would receive 0.23 cc of this solution. The solution was sonicated for approximately 90 minutes, or until the compound is dissolved.
Male CF-1 mice (15-25 gm) were weighed and marked for identification purposes. Each individual mouse was restrained by grasping the dorsal skin of the neck until the mouse was still. An impounder was used to administer the trauma. The impounder consists of a weight suspended over the animal's head at a height sufficient to produce significant injury when dropped, and a means for immobilizing the animal (in this case, room to hold the animal in place). […] 62:882-887, 883. The mouse was positioned properly under the impounder, and the weight was released from its preset height (11 CM).
Immediately following injury, the mouse was placed under a heat lamp. At various times after injury, the drug was administered intravenously at the specified dose. The time of injury and the time of injection were recorded.
B) Measurement of Grip Score
Each mouse was evaluated 18 hours post-injury for neurological deficit. The delay of 18 hours provided time for any sedative effects of the compound to wear off. It also provided time for healing to occur. Mortality was also noted. A standard grip test, as described in Hall et al., J. Neurosurg. 68:456-461 (1988), was used. The apparatus consisted of a taut string suspended between two uprights, 60 cm in length and 40 cm above a padded table.
Each mouse was picked up by the tail and placed on the string. […] The tail was then released. Grip score was recorded based on the mouse's performance while on the string. The following criteria were used (taken from Hall, E. D., J. Neurosurg. 62:882-887 (1985)):
C) Statistical Analysis Results of the above test were analyzed for statistical significance using the Mann-Whitney U test. See R. V. Tallarida & R. B. Murray, MANUAL OF PHARMACOLOGIC CALCULATIONS WITH COMPUTER PROGRAMS, Springer-Verlag, N.Y., pp. 57-59 (1981). This test was used to compare each set of grip scores for a particular dose of a particular compound against the grip scores for the control group.

The format of test [3] is in vivo, mice (male CF-1).
For test [4] the following is noted: in vivo; cited from earlier work.

The values that follow come from patent US5550124A, “Use of peripheral-type benzodiazpine sites for treatment of CNS trauma or disease” (priority 1991, dated 1996).

Structures are written as SMILES.

Consider `CCC(C)N(C)C(=O)c1cc2ccccc2c(-c2ccccc2Cl)n1` (stereo not shown) [PK 11195, N-methyl-N-1-(1-methyl,propyl)(2-chlorophenyl)-3-isoquinoline carboxamide], for which the “binding affinity to peripheral-type BZ sites (in words)” value in test [1] is recorded as “high degree of affinity”. Also, in test [2] (0.1 mg/kg i.v., FIG. 1), the “grip score 18 hours post trauma (in words)” value is “statistically significant increase in the grip score”. Besides, the “neurological deficit score (grip score)” value came out at 3.07 ± 0.47 in test [2] (1 mg/kg i.v., 5 min post injury, control 2.06 ± 0.23, P<0.05); 3.53 ± 0.36 in test [2] (1 mg/kg i.v., 30 min post injury, control 1.54 ± 0.43, P<0.004); 1.93 ± 0.42 in test [2] (1 mg/kg i.v., 60 min post injury, control 2.54 ± 0.51); 2.89 ± 0.40 in test [2] (10 mg/kg i.v., 5 min post injury, control 2.06 ± 0.23, P<0.05); 2.53 ± 0.40 in test [2] (10 mg/kg i.v., 30 min post injury, control 1.56 ± 0.50); 2.62 ± 0.40 in test [2] (10 mg/kg i.v., 60 min post injury, control 1.38 ± 0.60, P<0.03). In addition, the “grip score versus controls (in words)” value in test [2] (10 mg/kg, administered up to 1 hour post-injury) was “statistically significant increase in grip score”. Besides, the “effectiveness in treatment of CNS trauma/damage (in words)” value in test [2] (grip score 18 h post trauma, FIGS. 1-8) is “effective”. The “percent survival (in words)” value in test [3] (after KCN, increasing dose of compound, FIG. 10) was “increasing the dose of the compound increases the percent survival”. The “protection against KCN mortality (in words)” value in test [3] (varied KCN dose, FIG. 11) is reported as “protect against higher doses of KCN”. In addition, the “effect in cardiac ischemia” value in test [4] was “ineffective in treating cardiac ischemia”.
